In experiment [1] the target is JMJD2C (Homo sapiens (Human), UniProt Q9H3R0). Kind of experiment: In vitro enzyme inhibition assay for JMJD2C activity (TR-FRET). The class given is biochemical. A digest of the protocol:
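Baculovirus JMJD2C (AA 2-372), 0.3 nM, with 300 nM biotin-H3K9me3 peptide and 2 μM α-ketoglutarate in HEPES pH 7.3 containing Fe(II) and ascorbate, 30 min at room temperature, 11-point dilutions. H3K9me2 product by TR-FRET (Eu-antibody/streptavidin-APC, 665/615 ratio); IC50 fitted.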
On the technique in general: Time-resolved FRET reads energy transfer from a long-lived donor to a nearby acceptor.

Experiment [2] concerns KYSE-150 esophageal carcinoma cell line. In words: In vitro cell-based assay: cellular proliferation via BrdU incorporation (ELISA). Further details: species or system human. To be noted: Homo sapiens, KYSE-150, 168 hours compound incubation. An outline of the steps: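 KYSE-150 cells (JMJD2C-amplified; SMAD4 and TP53 mutant), 2,000/well, were treated after overnight attachment with an 11-point series (100 μM to 2 nM) for 168 h. Proliferation was read by BrdU ELISA (2 h labelling, anti-BrdU-peroxidase, TMB, 450 nm) and IC50 fitted.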

This passage reports IC50 results from US10106534B2 (CELGENE QUANTICEL RESEARCH, INC., priority 2014, dated 2018).

Each structure is given as a SMILES string. Where only a bound is given, the exact number is not on record here.

JMJD2C, sequence (Q9H3R0 2-372): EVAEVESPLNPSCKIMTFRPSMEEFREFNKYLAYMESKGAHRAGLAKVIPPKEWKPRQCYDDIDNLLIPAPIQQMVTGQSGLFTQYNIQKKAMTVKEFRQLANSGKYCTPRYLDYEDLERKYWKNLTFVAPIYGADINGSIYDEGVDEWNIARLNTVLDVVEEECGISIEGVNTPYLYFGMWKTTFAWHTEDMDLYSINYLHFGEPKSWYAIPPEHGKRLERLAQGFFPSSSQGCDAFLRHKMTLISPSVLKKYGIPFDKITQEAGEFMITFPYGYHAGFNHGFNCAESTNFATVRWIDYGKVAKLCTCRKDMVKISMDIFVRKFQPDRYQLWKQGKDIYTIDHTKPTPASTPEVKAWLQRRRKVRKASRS

In the case of `COc1ccc(N(C)c2ccc3c(c2)CCC[C@H]3CNc2cnccc2C(=O)O)cc1` [Example 177, 3-({[(1R)-6-[(4-methoxyphenyl)(methyl)amino]-1,2,3,4-tetrahydronaphthalen-1-yl]methyl}amino)pyridine-4-carboxylic acid], the IC50 in experiment [1] was 100 to 1000 nM; in experiment [2], at most 100 nM.

As to `COc1ccc(N(C)c2ccc3c(c2)OCC[C@H]3CNc2cnccc2C(=O)O)cc1` [Example 178, 3-({[(4R)-7-[(4-methoxyphenyl)(methyl)amino]-3,4-dihydro-2H-1-benzopyran-4-yl]methyl}amino)pyridine-4-carboxylic acid], the 50% inhibitory concentration (IC50) in experiment [1] and in experiment [2] was at most 100 nM each time.

Turning to `CN(c1ccc(N2CCCC2)cc1)c1ccc2c(c1)OCC[C@H]2CNc1cnccc1C(=O)O` [Example 179, 3-({[(4R)-7-{methyl[4-(pyrrolidin-1-yl)phenyl]amino}-3,4-dihydro-2H-1-benzopyran-4-yl]methyl}amino)pyridine-4-carboxylic acid], the concentration for half-maximal inhibition (IC50) in experiment [1] is 100 to 1000 nM; in experiment [2], at most 100 nM.

For `CN(c1ccc(N2CCC2)cc1)c1ccc2c(c1)CCC[C@H]2CNc1cnccc1C(=O)O` [Example 180, 3-({[(1R)-6-{[4-(azetidin-1-yl)phenyl](methyl)amino}-1,2,3,4-tetrahydronaphthalen-1-yl]methyl}amino)pyridine-4-carboxylic acid], the half-inhibitory concentration (IC50) in experiment [1] was 100 to 1000 nM; in experiment [2], at most 100 nM.

Regarding `CCOc1ccc(N(C)c2ccc3c(c2)OCC[C@H]3CNc2cnccc2C(=O)O)cc1` [Example 186, 3-({[(4R)-7-[(4-ethoxyphenyl)(methyl)amino]-3,4-dihydro-2H-1-benzopyran-4-yl]methyl}amino)pyridine-4-carboxylic acid], the half-inhibitory concentration (IC50) in experiment [1] is 100 to 1000 nM; in experiment [2], at most 100 nM.

For the compound `CN(c1ccc(-n2cccn2)cc1)c1ccc2c(c1)CCC[C@H]2CNc1cnccc1C(=O)O` [Example 188, 3-({[(1R)-6-{methyl[4-(1H-pyrazol-1-yl)phenyl]amino}-1,2,3,4-tetrahydronaphthalen-1-yl]methyl}amino)pyridine-4-carboxylic acid], the figures for the half-inhibitory concentration (IC50) in experiment [1] and in experiment [2] were 100 to 1000 nM and at most 100 nM, respectively.

Turning to `CN(c1ccc(-n2cccn2)cc1)c1ccc2c(c1)OCC[C@H]2CNc1cnccc1C(=O)O` [Example 189, 3-({[(4R)-7-{methyl[4-(1H-pyrazol-1-yl)phenyl]amino}-3,4-dihydro-2H-1-benzopyran-4-yl]methyl}amino)pyridine-4-carboxylic acid], the IC50 in experiment [1] and in experiment [2] was 100 to 1000 nM in each case.

As to `CN(c1ccc(N2CC(F)(F)C2)cc1)c1ccc2c(c1)OCC[C@H]2CNc1cnccc1C(=O)O` [Example 196, 3-({[(4R)-7-{[4-(3,3-difluoroazetidin-1-yl)phenyl](methyl)amino}-3,4-dihydro-2H-1-benzopyran-4-yl]methyl}amino)pyridine-4-carboxylic acid], the concentration for half-maximal inhibition (IC50) was 100 to 1000 nM in experiment [1] and at most 100 nM in experiment [2].

As to `COCCOc1ccc(N(C)c2ccc3c(c2)CCC[C@H]3CNc2cnccc2C(=O)O)cc1` [Example 197, 3-({[(1R)-6-{[4-(2-methoxyethoxy)phenyl](methyl)amino}-1,2,3,4-tetrahydronaphthalen-1-yl]methyl}amino)pyridine-4-carboxylic acid], the 50% inhibitory concentration (IC50) in experiment [1] is 100 to 1000 nM; in experiment [2] it was at most 100 nM.

Regarding `CC(c1ccccc1)c1ccc2c(c1)OCC[C@H]2CNc1cnccc1C(=O)O` (stereo partly drawn) [Example 198, 3-({[(4R)-7-(1-phenylethyl)-3,4-dihydro-2H-1-benzopyran-4-yl]methyl}amino)pyridine-4-carboxylic acid], the values for the concentration for half-maximal inhibition (IC50) in experiment [1] and in experiment [2] were 100 to 1000 nM and at most 100 nM, respectively.

On to `CC(C)c1ccc(N(C)c2ccc3c(c2)OCC[C@H]3CNc2cnccc2C(=O)O)nc1` [Example 199, 3-({[(4R)-7-{methyl[5-(propan-2-yl)pyridin-2-yl]amino}-3,4-dihydro-2H-1-benzopyran-4-yl]methyl}amino)pyridine-4-carboxylic acid], for which the half-maximal inhibitory concentration (IC50) in experiment [1] was 100 to 1000 nM; in experiment [2] it was at most 100 nM.

In the case of `CN(c1ccc(N2CC(O)C2)cc1)c1ccc2c(c1)CCC[C@H]2CNc1cnccc1C(=O)O` [Example 200, 3-({[(1R)-6-{[4-(3-hydroxyazetidin-1-yl)phenyl](methyl)amino}-1,2,3,4-tetrahydronaphthalen-1-yl]methyl}amino)pyridine-4-carboxylic acid], the concentration for half-maximal inhibition (IC50) in experiment [1] and in experiment [2] was 100 to 1000 nM each time.

In the case of `CN(c1ccc(C2=CCOCC2)cc1)c1ccc2c(c1)OCC[C@H]2CNc1cnccc1C(=O)O` [Example 201, 3-({[(4R)-7-{[4-(3,6-dihydro-2H-pyran-4-yl)phenyl](methyl)amino}-3,4-dihydro-2H-1-benzopyran-4-yl]methyl}amino)pyridine-4-carboxylic acid], the IC50 in experiment [1] was 100 to 1000 nM; in experiment [2] it was at most 100 nM.

In the case of `O=C(O)c1ccncc1NC[C@@H]1CCOc2cc(C3(c4ccccc4)CC3)ccc21` [Example 203, 3-({[(4R)-7-(1-phenylcyclopropyl)-3,4-dihydro-2H-1-benzopyran-4-yl]methyl}amino)pyridine-4-carboxylic acid], the IC50 in experiment [1] and in experiment [2] was 100 to 1000 nM in each case.

Turning to `CN1CC=C(c2ccc(N(C)c3ccc4c(c3)OCC[C@H]4CNc3cnccc3C(=O)O)cc2)CC1` [Example 204, 3-({[(4R)-7-{methyl[4-(1-methyl-1,2,3,6-tetrahydropyridin-4-yl)phenyl]amino}-3,4-dihydro-2H-1-benzopyran-4-yl]methyl}amino)pyridine-4-carboxylic acid], the 50% inhibitory concentration (IC50) in experiment [1] is at most 100 nM; in experiment [2], above 10000 nM.

As for `CN1CCC(c2ccc(N(C)c3ccc4c(c3)OCC[C@H]4CNc3cnccc3C(=O)O)cc2)CC1` [Example 205, 3-({[(4R)-7-{methyl[4-(1-methylpiperidin-4-yl)phenyl]amino}-3,4-dihydro-2H-1-benzopyran-4-yl]methyl}amino)pyridine-4-carboxylic acid], the values for the IC50 in experiment [1] and in experiment [2] were at most 100 nM and above 10000 nM, respectively.

For `Cc1ccc(N(C)c2ccc3c(c2)OCC[C@H]3CNc2cnccc2C(=O)O)cc1C` [Example 206, 3-({[(4R)-7-[(3,4-dimethylphenyl)(methyl)amino]-3,4-dihydro-2H-1-benzopyran-4-yl]methyl}amino)pyridine-4-carboxylic acid], the IC50 in experiment [1] was 100 to 1000 nM; in experiment [2] it was at most 100 nM.

Take `CN(c1ccc(CCO)cc1)c1ccc2c(c1)OCC[C@H]2CNc1cnccc1C(=O)O` [Example 207, 3-({[(4R)-7-{[4-(2-hydroxyethyl)phenyl](methyl)amino}-3,4-dihydro-2H-1-benzopyran-4-yl]methyl}amino)pyridine-4-carboxylic acid]: the concentration for half-maximal inhibition (IC50) in experiment [1] and in experiment [2] was 100 to 1000 nM each time.

Consider `CCCc1ccc(N(C)c2ccc3c(c2)OCC[C@H]3CNc2cnccc2C(=O)O)cc1` [Example 208, 3-({[(4R)-7-[methyl(4-propylphenyl)amino]-3,4-dihydro-2H-1-benzopyran-4-yl]methyl}amino)pyridine-4-carboxylic acid], for which the half-maximal inhibitory concentration (IC50) in experiment [1] was 1000 to 10000 nM; in experiment [2] it was at most 100 nM.

As to `CC(C)Oc1ccc(N(C)c2ccc3c(c2)OCC[C@H]3CNc2cnccc2C(=O)O)cc1` [Example 210, 3-({[(4R)-7-{methyl[4-(propan-2-yloxy)phenyl]amino}-3,4-dihydro-2H-1-benzopyran-4-yl]methyl}amino)pyridine-4-carboxylic acid], the IC50 in experiment [1] is 100 to 1000 nM; in experiment [2], at most 100 nM.

In the case of `CN(c1ccc(OCC2CC2)cc1)c1ccc2c(c1)OCC[C@H]2CNc1cnccc1C(=O)O` [Example 211, 3-({[(4R)-7-{[4-(cyclopropylmethoxy)phenyl](methyl)amino}-3,4-dihydro-2H-1-benzopyran-4-yl]methyl}amino)pyridine-4-carboxylic acid], the IC50 in experiment [1] is 100 to 1000 nM; in experiment [2], at most 100 nM.

Turning to `CCCOc1ccc(N(C)c2ccc3c(c2)OCC[C@H]3CNc2cnccc2C(=O)O)cc1` [Example 212, 3-({[(4R)-7-[methyl(4-propoxyphenyl)amino]-3,4-dihydro-2H-1-benzopyran-4-yl]methyl}amino)pyridine-4-carboxylic acid], the IC50 in experiment [1] was 100 to 1000 nM; in experiment [2], at most 100 nM.

With `CN(c1ccc(OC2CC2)cc1)c1ccc2c(c1)OCC[C@H]2CNc1cnccc1C(=O)O` [Example 213, 3-({[(4R)-7-[(4-cyclopropoxyphenyl)(methyl)amino]-3,4-dihydro-2H-1-benzopyran-4-yl]methyl}amino)pyridine-4-carboxylic acid], the IC50 in experiment [1] was 100 to 1000 nM; in experiment [2] it was at most 100 nM.

Turning to `CN(c1ccc(OCC(F)(F)F)cc1)c1ccc2c(c1)OCC[C@H]2CNc1cnccc1C(=O)O` [Example 214, 3-({[(4R)-7-{methyl[4-(2,2,2-trifluoroethoxy)phenyl]amino}-3,4-dihydro-2H-1-benzopyran-4-yl]methyl}amino)pyridine-4-carboxylic acid], the IC50 in experiment [1] was 100 to 1000 nM; in experiment [2], at most 100 nM.

What is called IC50 is the concentration that gives 50% inhibition. A low value points to inhibition by little substance.
